# From patent publication US7109181B2, “Joint lubrication with P2Y purinergic receptor agonists” (Inspire Pharmaceuticals, Inc., priority 2001, dated 2006)
# Tested on: synovial fibroblasts
# Test: Measurement of cytosolic calcium in cultured synovial fibroblasts (Fluo-3 AM, FLIPR)
# Assay type: cell-based
# Conditions: synovial fibroblasts stimulated with increasing concentrations of P2Y receptor agonists; FIG. 1
# Description: The pharmaceutical utility of compounds of this invention is indicated by the cytosolic calcium assay for P2Y2 and other P2Y receptor activity. This widely used assay, as described in Pendergast, et al. (2001) (Bioorg. Med. Chem. Lett. 11, 157-160), relies on the measurement of increased cytosolic calcium levels to determine the biological activity of compounds that activate receptors linked via G-proteins to phospholipase C. The efficacy of these compounds is reflected in their ability to alter and/or enhance the secretory activity of the joints, including but not limited to, the knee, hip, and shoulder, to effectuate the agent's target response. The target response is the improvement of joint lubrication and movement.
# A conventional technique was used to detect increases in cytosolic calcium induced by P2Y receptor agonists, a technique familiar to those skilled in the art. Cells were seeded in 96-well plates and used for cytosolic calcium assays. On the day of the assay, the growth medium was aspirated and replaced with a solution of Fluo-3 AM (2.5 μM final concentration) in an assay buffer consisting of (mM): KCl (10), NaCl (118), CaCl2 (2.5), MgCl2 (1), HEPES (20), glucose (10), pH 7.4. Probenecid (Sigma Chemical Co.) was added to the dye load and dye wash medium at a working concentration of 2.5 mM to increase dye retention in the cells. After a 60 minute incubation with Fluo-3 AM at 25° C., cells were washed free of dye (Columbus Plate Washer, TECAN U.S., Inc., Research Triangle Park, N.C.) and were stimulated with increasing concentrations of P2Y receptor agonists. Intracellular calcium levels were simultaneously monitored in each well by measuring the changes in fluorescence intensity using the FLIPR (Molecular Devices Corp., Sunnyvale, Calif.).
# Synovial fibroblasts were subjected to the cytosolic calcium assay described above. […] The induction of increases in cytosolic calcium by ATP and UTP in synovial fibroblasts indicated the pharmaceutical utility of P2Y2 receptor agonists in the joint.
row,SMILES,effect on cytosolic calcium levels
1,"O=c1ccn([C@@H]2O[C@H](COP(=O)(O)OP(=O)(O)OP(=O)(O)O)[C@@H](O)[C@H]2O)c(=O)[nH]1 [UTP, uridine-5′-triphosphate]",stimulate increases in cytosolic calcium
2,"CSc1nc(N)c2ncn([C@@H]3O[C@H](COP(=O)(O)OP(=O)(O)O)[C@@H](O)[C@H]3O)c2n1 [2-methylthioADP, reference compound]",did not alter cytosolic calcium concentration
3,"Nc1ncnc2c1ncn2[C@@H]1O[C@H](COP(=O)(O)OP(=O)(O)OP(=O)(O)O)[C@@H](O)[C@H]1O [ATP, adenosine-5′-triphosphate]",stimulate increases in cytosolic calcium
